Test results from PubChem BioAssay AID266 (DTP/NCI, 2004).
Several values for one entry are separate records, joined by “and”; a condition that tells them apart may be missing. Identical values can stand only once. Records with an inconclusive call do not appear.

Test system: Nude mice, LX-1 lung xenograft intrarenal, tumor weight T/C
Experiment: NCI In Vivo Anticancer Drug Screen. Data for tumor model Human Lung LX-1 Xenograft (intrarenal inoculation) in NU/NU BALB/C (nude) mice
Conditions: endpoint: mean tumor weight change, higher = larger tumour
Protocol: The antitumor activity of compounds was measured in mice bearing transplantable tumors. Survival or tumor size were measured and the results are expressed as the measurement made in the treated group (T) divided by the measurement made in the vehicle treated control group (C). The tumor model used in this assay is Human Lung LX-1 Xenograft (intrarenal inoculation) in NU/NU BALB/C (nude) mice

[1] = dose: 100.0 mg/kg/injection, schedule: Q01DX010 (sc), vehicle: Klucel (hydroxypropylcellulose) (HPC)
[2] = dose: 200.0 mg/kg/injection, schedule: Q04DX003 (sc), vehicle: saline with Tween-80
[3] = dose: 400.0 mg/kg/injection, schedule: Q04DX003 (sc), vehicle: saline with Tween-80
[4] = dose: 50.0 mg/kg/injection, schedule: Q01DX010 (sc), vehicle: Klucel (hydroxypropylcellulose) (HPC)
[5] = dose: 100.0 mg/kg/injection, schedule: Q01DX010 (sc), vehicle: saline with Tween-80
[6] = dose: 200.0 mg/kg/injection, schedule: Q01DX010 (sc), vehicle: saline with Tween-80
[7] = dose: 300.0 mg/kg/injection, schedule: Q04DX003 (sc), vehicle: saline with Tween-80
[8] = dose: 600.0 mg/kg/injection, schedule: Q04DX003 (sc), vehicle: saline with Tween-80
[9] = dose: 1200.0 mg/kg/injection, schedule: Q04DX003 (sc), vehicle: saline with Tween-80
[10] = dose: 2400.0 mg/kg/injection, schedule: Q04DX003 (sc), vehicle: saline with Tween-80
[11] = dose: 300.0 mg/kg/injection, schedule: Q04DX003 (sc), vehicle: saline
[12] = dose: 600.0 mg/kg/injection, schedule: Q04DX003 (sc), vehicle: saline
[13] = dose: 1200.0 mg/kg/injection, schedule: Q04DX003 (sc), vehicle: saline

SMILES: CNc1nc(NC)nc(NC)n1
- T/C (dose: 25.0 mg/kg/injection, schedule: Q01DX010 (sc), vehicle: Klucel (hydroxypropylcellulose) (HPC)): 85 % of control
- T/C [1]: 107 % of control

SMILES: CCCCCCCCNc1cc2c3c(c1)CCCN3CCC2
- T/C (dose: 6.0 mg/kg/injection, schedule: Q04DX003 (sc), vehicle: Klucel (hydroxypropylcellulose) (HPC)): 155 % of control
- T/C (dose: 12.0 mg/kg/injection, schedule: Q04DX003 (sc), vehicle: Klucel (hydroxypropylcellulose) (HPC)): 118 % of control
- T/C (dose: 24.0 mg/kg/injection, schedule: Q04DX003 (sc), vehicle: Klucel (hydroxypropylcellulose) (HPC)): 106 % of control

SMILES: OC1(CSc2ccccc2)CCCCC1
- T/C [2]: 75 % of control
- T/C [3]: 85 % of control
- T/C (dose: 800.0 mg/kg/injection, schedule: Q04DX003 (sc), vehicle: saline with Tween-80): 82 % of control
- T/C (dose: 1600.0 mg/kg/injection, schedule: Q04DX003 (sc), vehicle: saline with Tween-80): 90 % of control

SMILES: O=C(CCBr)N1CCN(C(=O)CCBr)CC1
- T/C [4]: 48 % of control

SMILES: CO[C@H](/C(C)=C/C=C/C(C)=C/c1coc(C)n1)[C@H](C)[C@H]1C[C@@H](O)[C@@]2(C)O[C@H]2/C=C/[C@@H](C)[C@@H]2C[C@@H](CC(=O)O2)C[C@H]2O[C@@H]2C(=O)O1
- T/C (dose: 0.13 mg/kg/injection, schedule: Q04DX003 (sc), vehicle: Klucel (hydroxypropylcellulose) (HPC)): 105 % of control
- T/C (dose: 0.25 mg/kg/injection, schedule: Q04DX003 (sc), vehicle: Klucel (hydroxypropylcellulose) (HPC)): 95 % of control

SMILES: CC(=O)Oc1c[nH]c(=O)[nH]c1=O
- T/C (dose: 200.0 mg/kg/injection, schedule: Q04DX003 (sc), vehicle: distilled water + Tween-80): 98 % of control
- T/C (dose: 400.0 mg/kg/injection, schedule: Q04DX003 (sc), vehicle: distilled water + Tween-80): 76 % of control
- T/C (dose: 800.0 mg/kg/injection, schedule: Q04DX003 (sc), vehicle: distilled water + Tween-80): 104 % of control

SMILES: CN(CO)c1nc(N(C)CO)nc(N(C)CO)n1
- T/C (dose: 6.25 mg/kg/injection, schedule: Q01DX010 (sc), vehicle: saline): 71 % of control
- T/C (dose: 25.0 mg/kg/injection, schedule: Q01DX010 (sc), vehicle: saline): 100 % of control
- T/C (dose: 50.0 mg/kg/injection, schedule: Q01DX010 (sc), vehicle: saline): 122 % of control

SMILES: COC1=C(OC)C(=O)C(C/C=C(\C)CC/C=C(\C)CC/C=C(\C)CC/C=C(\C)CC/C=C(\C)CC/C=C(\C)CC/C=C(\C)CC/C=C(\C)CC/C=C(\C)CCC=C(C)C)=C(C)C1=O
- T/C (dose: 50.0 mg/kg/injection, schedule: Q01DX010 (sc), vehicle: saline with Tween-80): 91 % of control
- T/C [5]: 90 % of control
- T/C [6]: 102 % of control
- T/C (dose: 400.0 mg/kg/injection, schedule: Q01DX010 (sc), vehicle: saline with Tween-80): 104 % of control

SMILES: CN(C)CCC(=O)C(=Cc1ccc(O)cc1)C(=O)CCN(C)C
- T/C (dose: 75.0 mg/kg/injection, schedule: Q04DX003 (ip), vehicle: saline): 95 % of control
- T/C (dose: 150.0 mg/kg/injection, schedule: Q04DX003 (ip), vehicle: saline): 116 % of control

SMILES: CC(=O)C(O)N1C(=O)C=CC1=O (centres undefined)
- T/C (dose: 2.5 mg/kg/injection, schedule: Q01DX010 (sc), vehicle: saline): 73 % of control
- T/C (dose: 5.0 mg/kg/injection, schedule: Q01DX010 (sc), vehicle: saline): 92 % of control
- T/C (dose: 10.0 mg/kg/injection, schedule: Q01DX010 (sc), vehicle: saline): 101 % of control

SMILES: O=Cc1ccc(C=O)c(Cl)c1
- T/C (dose: 300.0 mg/kg/injection, schedule: Q04DX003 (sc), vehicle: Klucel (hydroxypropylcellulose) (HPC)): 81 % of control
- T/C (dose: 600.0 mg/kg/injection, schedule: Q04DX003 (sc), vehicle: Klucel (hydroxypropylcellulose) (HPC)): 88 % of control
- T/C (dose: 1200.0 mg/kg/injection, schedule: Q04DX003 (sc), vehicle: Klucel (hydroxypropylcellulose) (HPC)): 79 % of control
- T/C (dose: 2400.0 mg/kg/injection, schedule: Q04DX003 (sc), vehicle: Klucel (hydroxypropylcellulose) (HPC)): 152 % of control

SMILES: O=C(c1cccnc1)c1cc(-c2ccccn2)c(=O)n2ccccc12
- T/C [7]: 95 % of control
- T/C [8]: 74 % of control
- T/C [9]: 92 % of control
- T/C [10]: 74 % of control

SMILES: CN(C)N=Nc1ccc(C(=O)O)cc1
- T/C (dose: 50.0 mg/kg/injection, schedule: Q04DX003 (ip), vehicle: saline): 2 % of control and 4 % of control
- T/C (dose: 400.0 mg/kg/injection, schedule: Q04DX003 (ip), vehicle: saline): -62 % of control and -40 % of control

SMILES: COc1ccc2cc1Oc1ccc(cc1)C[C@H]1c3cc(c(OC)cc3CCN1C)Oc1c(OC)c(OC)cc3c1[C@H](C2)N(C)CC3
- T/C [5]: 110 % of control
- T/C [6]: 122 % of control

SMILES: Nc1nnc[se]1
- T/C (dose: 100.0 mg/kg/injection, schedule: Q04DX003 (sc), vehicle: saline with Tween-80): 82 % of control
- T/C [2]: 40 % of control
- T/C [3]: 30 % of control

SMILES: COc1cc(C(C)(C)C)cc(OC)c1C(O)(c1c(OC)cc(C(C)(C)C)cc1OC)c1c(OC)cc(C(C)(C)C)cc1OC
- T/C [7]: 60 % of control
- T/C [8]: 54 % of control
- T/C [9]: 54 % of control
- T/C [10]: 73 % of control

SMILES: Cc1cnc(/C=N\NC(N)=S)c2cccc(N)c12
- T/C (dose: 31.75 mg/kg/injection, schedule: Q04DX003 (ip), vehicle: saline with Tween-80): 74 % of control
- T/C (dose: 62.5 mg/kg/injection, schedule: Q04DX003 (ip), vehicle: saline with Tween-80): 89 % of control
- T/C (dose: 125.0 mg/kg/injection, schedule: Q04DX003 (ip), vehicle: saline with Tween-80): 49 % of control

SMILES: CC(=O)C(=O)O.CC(=O)C(=O)O.[NH-]C1CCCCC1[NH-].[Pt+2] (centres undefined)
- T/C (dose: 9.37 mg/kg/injection, schedule: Q04DX003 (sc), vehicle: other): 67 % of control
- T/C (dose: 18.75 mg/kg/injection, schedule: Q04DX003 (sc), vehicle: other): 76 % of control
- T/C (dose: 37.5 mg/kg/injection, schedule: Q04DX003 (sc), vehicle: other): 80 % of control

SMILES: CC(=Nc1ccccc1)C1=C(O)C(Cc2ccccc2)NC1=O (centres undefined)
- T/C [7]: 52 % of control
- T/C [8]: 32 % of control
- T/C [9]: 40 % of control
- T/C [10]: 30 % of control

SMILES: [Na+]
- T/C (dose: 150.0 mg/kg/injection, schedule: Q04DX003 (ip), vehicle: water): 68 % of control
- T/C (dose: 600.0 mg/kg/injection, schedule: Q04DX003 (ip), vehicle: water): 82 % of control
- T/C (dose: 1200.0 mg/kg/injection, schedule: Q04DX003 (ip), vehicle: water): 79 % of control

SMILES: CNc1nc(N(C)C)nc(N(C)C)n1
- T/C (dose: 30.0 mg/kg/injection, schedule: Q01DX010 (sc), vehicle: other): 169 % of control
- T/C (dose: 60.0 mg/kg/injection, schedule: Q01DX010 (sc), vehicle: other): 29 % of control

SMILES: O=C(O)CP(=O)(O)O
- T/C [11]: 105 % of control
- T/C [12]: 156 % of control
- T/C [13]: 106 % of control

SMILES: NC(CCC(=O)NC(CS)C(=O)NCC(=O)O)C(=O)O (centres undefined)
- T/C [11]: 97 % of control
- T/C [12]: 69 % of control
- T/C [13]: 74 % of control
- T/C (dose: 2400.0 mg/kg/injection, schedule: Q04DX003 (sc), vehicle: saline): 121 % of control

SMILES: [N-]=[N+]=CC(=O)CCC(N)C(=O)O (centres undefined)
- T/C (dose: 0.05 mg/kg/injection, schedule: Q01DX010 (sc), vehicle: saline): 119 % of control
- T/C (dose: 0.05 mg/kg/injection, schedule: Q02DX005 (sc), vehicle: saline): 226 % of control
- T/C (dose: 0.1 mg/kg/injection, schedule: Q01DX010 (sc), vehicle: saline): 64 % of control
- T/C (dose: 0.1 mg/kg/injection, schedule: Q02DX005 (sc), vehicle: saline): 187 % of control
- T/C (dose: 0.2 mg/kg/injection, schedule: Q02DX005 (sc), vehicle: saline): 110 % of control
- T/C (dose: 0.4 mg/kg/injection, schedule: Q01DX010 (sc), vehicle: saline): 34 % of control
- T/C (dose: 3.2 mg/kg/injection, schedule: Q02DX005 (sc), vehicle: saline): 9 % of control

SMILES: CC(=O)O[C@H]1C(=O)[C@@]2(C)[C@H]([C@H](OC(=O)c3ccccc3)[C@]3(O)C[C@H](OC(=O)[C@H](O)[C@@H](NC(=O)c4ccccc4)c4ccccc4)C(C)=C1C3(C)C)[C@]1(OC(C)=O)CO[C@@H]1C[C@@H]2O
- T/C [4]: 63 % of control
- T/C [1]: 93 % of control
- T/C (dose: 200.0 mg/kg/injection, schedule: Q01DX010 (sc), vehicle: Klucel (hydroxypropylcellulose) (HPC)): 68 % of control
- T/C (dose: 400.0 mg/kg/injection, schedule: Q01DX010 (sc), vehicle: Klucel (hydroxypropylcellulose) (HPC)): 51 % of control
